According to patent publication US9382295B2, “Cyclic depsipeptide compounds and their uses” (Cypralis Limited, priority 2012, dated 2016):
≈ marks a conversion by molar mass, not a printed value. Like-named read-outs stand apart in the source and are kept apart here. Numbered stars: 1 amine (or outer) side, 2 acyl side, 3 side chain; on linkers, the order of the positions; unused ones are H or OH. Square brackets hold non-standard residues; d marks the D form. Peptide text beside a SMILES is read from it. X2 = C[C@H](CCCc1cccc(N2CCOCC2)n1)[C@@H](O)[C@H](C(=O)[*:2])N(C)[*:1]; X5 = C[C@H](CCN1CCS(=O)(=O)CC1)[C@@H](O)[C@H](C(=O)[*:2])N(C)[*:1]; X3 = C[C@H](CCN1CC2CCC(C1)O2)[C@@H](O)[C@H](C(=O)[*:2])N(C)[*:1]; X1 = Cc1cccc(CCC[C@@H](C)[C@@H](O)[C@H](C(=O)[*:2])N(C)[*:1])n1; X4 = C[C@H](C/C=C/c1ncccn1)[C@@H](O)[C@H](C(=O)[*:2])N(C)[*:1]; d(aThr) = C[C@@H](O)[C@@H](N)C(=O)O; NMeL = CN[C@@H](CC(C)C)C(=O)O; dNMeL = CN[C@H](CC(C)C)C(=O)O; dNMeV = CN[C@@H](C(=O)O)C(C)C; Hiv = CC(C)[C@H](O)C(=O)O; Sar = CNCC(=O)O

Experiments:
[1] = molecular target: cyclophilin D (Cyp D) (Homo sapiens, UniProt P30405); experiment: Protease-free PPIase assay, cyclophilin D; format: biochemical
cyclophilin D (Cyp D), sequence (P30405 30-207): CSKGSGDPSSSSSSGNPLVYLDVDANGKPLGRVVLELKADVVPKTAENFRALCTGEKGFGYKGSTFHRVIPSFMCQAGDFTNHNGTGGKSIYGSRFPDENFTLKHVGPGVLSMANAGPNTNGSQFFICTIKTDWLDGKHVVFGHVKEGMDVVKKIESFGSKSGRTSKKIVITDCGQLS
Summary of the method: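 Cis-trans isomerization of a succinimide-peptide substrate (60 µM final) by 2 nM enzyme was followed at 330 nm in 35 mM HEPES pH 7.8 with 50 µM DTT, stirred at 10.0 °C, DMSO ≤0.5%. First-order rate constants minus background were fitted against inhibitor concentration to give Ki.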

[2] = Water solubility assay (pH 7.8 buffer); format: physicochemical
Summary of the method: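 DMSO stocks were diluted into 35 mM HEPES pH 7.8 to final 0–100 μM with 1% DMSO, in triplicate. Plates were shaken 18 h at 25 °C, then precipitation was detected as increased absorbance at 650 nm. Values give the concentration (μM) at which the compound remains in solution.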

[3] = molecular target: T1, cyclophilin A (Cyp A) (Homo sapiens, UniProt P62937); experiment: Protease-free PPIase assay, cyclophilin A; format: biochemical
T1 construct: purchased Sigma C3805
T1 sequence (P62937 whole entry): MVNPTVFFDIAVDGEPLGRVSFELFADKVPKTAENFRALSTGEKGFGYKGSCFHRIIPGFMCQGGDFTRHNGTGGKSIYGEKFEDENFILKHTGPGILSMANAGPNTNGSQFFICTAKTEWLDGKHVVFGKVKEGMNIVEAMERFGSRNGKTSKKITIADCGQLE
Summary of the method: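 Protease-free cis-trans isomerisation: 2 nM recombinant human cyclophilin A with 60 μM succinimide-peptide substrate in 35 mM HEPES pH 7.8 plus DTT, at 10.0 °C, max 0.5% DMSO. Absorbance at 330 nm was fitted to first-order kinetics, background subtracted, and catalytic rates versus inhibitor concentration gave Ki.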

[4] = molecular target: T2, calcineurin/cyclophilin A (Homo sapiens, UniProt P62937+P63098+Q08209); experiment: Calcineurin phosphatase (CaN) assay in the presence of Cyp A; format: biochemical; settings: inhibitor in 1:1 complex with Cyp A; read-out: CaN + CypA (IC50 in the calcineurin/cyclophilin A assay)
T2 construct: purchased Enzo Life Sciences (calcineurin, calmodulin); Sigma (CypA) BML-AK804; C3805
T2 sequence (P63098 whole entry, other chains not shown): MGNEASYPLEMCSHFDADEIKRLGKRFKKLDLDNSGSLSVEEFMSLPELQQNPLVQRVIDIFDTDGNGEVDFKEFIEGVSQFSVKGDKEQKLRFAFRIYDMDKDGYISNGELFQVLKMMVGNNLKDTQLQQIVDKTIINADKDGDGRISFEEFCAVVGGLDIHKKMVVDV
T2 sequence (P62937 whole entry, other chains not shown): as the sequence (P62937 whole entry) above
Excerpt: **Calcineurin Phosphatase (CaN) Assay The calcineurin phosphatase assay is a means for estimating the immunosuppressive potential of a test compound. Calcineurin is a serine-threonine protein phosphatase that on activation dephosphorylates members of the nuclear factor of activated T cells (NFAT), which are important in T lymphocyte activation. […] To investigate the immunosuppressive potential of exemplary compounds of Formula 1, which are novel cycloundecadepsipeptide compounds, their ability to inhibit calcineurin activity was measured in the presence of Cyp A. The CaN assay kit used is based on a colorimetric assay for measuring calcineurin phosphatase activity, and it is commercially available (Enzo Life Sciences and Calbiochem). Calmodulin is also required for calcineurin activity and RH phosphopeptide is used as an efficient peptide substrate for calcineurin. […] The detection of free phosphate released is based on the classic Malachite green assay. Enzo Life Sciences CaN Assay Kit: BML-AK804 2× assay buffer: 100 mM Tris, pH7.5, 200 mM NaCl, 12 mM MgCl2, 1 mM DTT, 0.05% NP-40, 1 mM CaCl2 Calmodulin (Human, Recombinant): was thawed on ice, diluted 1:50 with 2× assay buffer, and then stored on ice. Calcineurin: was thawed quickly, stored on ice immediately, diluted 1:12.5 with 1× assay buffer, and then stored on ice. R-II Substrate: 915 μL ultrapure water (UPW) was added to the 1.5 mg vial substrate to give a final concentration of 0.75 mM. Inhibitors: 2.5 mM inhibitor in 100% DMSO. Cyp A: recombinant human CypA (Sigma C3805), 1 mg/ml; Recombinant 6-his tagged CypA prepared by the Univ. of Edinburgh was also used. […] Inhibitor dilutions: inhibitor compounds were diluted in UPW in polypropylene low-binding 96 well plates at 5x the final assay concentration. For samples ‘without Cyp A’, a 4-point dilution series of the inhibitor was prepared in duplicate to obtain a final assay concentration of 10, 1, 0.1 and 0.01 μM. […] Cs A inhibitor controls were also prepared to obtain a final concentration of 10 μM Cs A with and without 10 μM Cyp A. Assay Setup: using the half area 96 well plates supplied with the kit, 10 μl UPW was added to duplicate wells to provide the non-inhibited control. 10 μl of the inhibitor or the inhibitor/Cyp A complex was added to the appropriate sample wells. 25 μl of the 2× assay buffer with CaM was added to all wells, then 5 μl of CaN was added to all wells (40 U per well final concentration) except duplicate ‘no calcineurin blank’ wells to which 5 μL 1× assay buffer was added. […] The reaction was started by the addition of 10 μl RII-peptide (0.15 mM final concentration). The reaction was allowed to proceed at 30° C. for a time period in which the reaction is linear for about 60 minutes. The reaction was then terminated by adding 100 μl of the Malachite Green reagent. […] The data were analyzed by subtracting ‘no Calcineurin blank’ from all the absorbance readings and plotting the background corrected absorbances against Log10 inhibitor concentration. A sigmoidal-dose response curve was fitted to the data using GraphPad Prism Software. […] It exerts its immunosuppressive activity by binding to cyclophilin A to form a complex, which then binds to calcineurin and thereby inhibits calcineurin activity.

| Structure (SMILES) | Ki [1] | solubility at 18 h ([2]; pH 7.8) | Ki [3] | IC50 [4] | Ki ([1]; protease-free PPIase assay, class symbols, read-out: CypD Ki) | solubility at 18 h ([2]; 35 mM HEPES buffer, 35 mM HEPES pH 7.8, 1% DMSO, 25° C., 18 h, concentration at which compound remains in solution, read-out: Solubility) | Ki ([3]; protease-free PPIase assay, class symbols, read-out: CypA Ki) |
| --- | --- | --- | --- | --- | --- | --- | --- |
| C/C=C/C[C@@H](C)[C@@H](O)[C@@H]1C(=O)N[C@H]([C@@H](C)O)C(=O)N(C)CC(=O)N(C)[C@@H](CC(C)C)C(=O)N[C@H](CC(C)C)C(=O)N(C)[C@H](CC(C)C)C(=O)N[C@H](C)C(=O)O[C@@H](C(C)C)C(=O)N(C)[C@H](CC(C)C)C(=O)N[C@H](CC(C)C)C(=O)N(C)[C@H](C(C)C)C(=O)N1C [Example 1, Cyclo-(MeBmt-Thr-Sar-MeLeu-Leu-MeLeu-Ala-D-Hiv-MeLeu-Leu-MeVal), reference compound] | 0.0032 µM | 10 to 25 µM (≈ 12.5 to 31.2 µg/mL) | 0.0017 µM | 0.07 µM |  |  |  |
| CC(C)C[C@@H]1C(=O)N[C@H](CC(C)C)C(=O)N(C)[C@H](C(C)C)C(=O)N(C)[C@H]([C@H](O)[C@H](C)C/C=C/c2ncccn2)C(=O)N[C@H]([C@@H](C)O)C(=O)N(C)CC(=O)N(C)[C@@H](CC(C)C)C(=O)N[C@H](CC(C)C)C(=O)N(C)[C@H](CC(C)C)C(=O)N[C@H](C)C(=O)O[C@@H](C(C)C)C(=O)N1C [Example 15, cyclo-{(3R,4R,5S)-4-(hydroxy)-3-methyl-5-(methylamino)-1-(pyrimidin-2-yl)-hept-1-enoic acid-Thr-Sar-MeLeu-Leu-MeLeu-Ala-D-Hiv-MeLeu-Leu-MeVal}] (cyclo([Hiv][dNMeL][dL][dNMeV][X4][d(aThr)][Sar][NMeL][dL][dNMeL][dA])) | 0.001 to 0.025 µM | 10 to 25 µM (≈ 13.1 to 32.8 µg/mL) | 0.001 to 0.025 µM | > 1 µM |  |  |  |
| Cc1cccc(CCC[C@@H](C)[C@@H](O)[C@@H]2C(=O)N[C@H]([C@@H](C)O)C(=O)N(C)CC(=O)N(C)[C@@H](CC(C)C)C(=O)N[C@H](CC(C)C)C(=O)N(C)[C@H](CC(C)C)C(=O)N[C@H](C)C(=O)O[C@@H](C(C)C)C(=O)N(C)[C@H](CC(C)C)C(=O)N[C@H](CC(C)C)C(=O)N(C)[C@H](C(C)C)C(=O)N2C)n1 [Example 17] (cyclo([Hiv][dNMeL][dL][dNMeV][X1][d(aThr)][Sar][NMeL][dL][dNMeL][dA])) | 0.001 to 0.025 µM | 10 to 25 µM (≈ 13.3 to 33.2 µg/mL) | 0.001 to 0.025 µM | > 1 µM |  |  |  |
| CC(C)C[C@@H]1C(=O)N[C@H](CC(C)C)C(=O)N(C)[C@H](C(C)C)C(=O)N(C)[C@H]([C@H](O)[C@H](C)CCCc2cccc(N3CCOCC3)n2)C(=O)N[C@H]([C@@H](C)O)C(=O)N(C)CC(=O)N(C)[C@@H](CC(C)C)C(=O)N[C@H](CC(C)C)C(=O)N(C)[C@H](CC(C)C)C(=O)N[C@H](C)C(=O)O[C@@H](C(C)C)C(=O)N1C [Example 20, cyclo-[(3R,4R,5S)-4-(hydroxy)-3-methyl-5-(methylamino)-1-(6-morpholin-4-yl-pyridin-2-yl)-heptanoic acid-Thr-Sar-MeLeu-Leu-MeLeu-Ala-D-Hiv-MeLeu-Leu-MeVal]] (cyclo([Hiv][dNMeL][dL][dNMeV][X2][d(aThr)][Sar][NMeL][dL][dNMeL][dA])) |  |  |  | > 5 µM | 0.001 to 0.025 µM | 10 to 25 µM (≈ 14 to 34.9 µg/mL) | 0.001 to 0.025 µM |
| CC(C)C[C@@H]1C(=O)N[C@H](CC(C)C)C(=O)N(C)[C@H](C(C)C)C(=O)N(C)[C@H]([C@H](O)[C@H](C)CCN2CC3CCC(C2)O3)C(=O)N[C@H]([C@@H](C)O)C(=O)N(C)CC(=O)N(C)[C@@H](CC(C)C)C(=O)N[C@H](CC(C)C)C(=O)N(C)[C@H](CC(C)C)C(=O)N[C@H](C)C(=O)O[C@@H](C(C)C)C(=O)N1C [Example 22, cyclo-[(3R,4R,5S)-4-(hydroxy)-3-methyl-5-(methylamino)-1-N-(8-oxa-3-aza-bicyclo[3.2.1]octane)-hexanoic acid-Thr-Sar-MeLeu-Leu-MeLeu-Ala-D-Hiv-MeLeu-Leu-MeVal]] (cyclo([Hiv][dNMeL][dL][dNMeV][X3][d(aThr)][Sar][NMeL][dL][dNMeL][dA])) | 0.001 to 0.025 µM | 25 to 50 µM (≈ 33.3 to 66.6 µg/mL) | 0.001 to 0.025 µM | > 10 µM |  |  |  |
| CC(C)C[C@@H]1C(=O)N[C@H](CC(C)C)C(=O)N(C)[C@H](C(C)C)C(=O)N(C)[C@H]([C@H](O)[C@H](C)CCN2CCS(=O)(=O)CC2)C(=O)N[C@H]([C@@H](C)O)C(=O)N(C)CC(=O)N(C)[C@@H](CC(C)C)C(=O)N[C@H](CC(C)C)C(=O)N(C)[C@H](CC(C)C)C(=O)N[C@H](C)C(=O)O[C@@H](C(C)C)C(=O)N1C [Example 23, cyclo-[(3R,4R,5S)-4-(hydroxy)-3-methyl-5-(methylamino)-1-N-(thiomorpholine 1,1-dioxide)-hexanoic acid-Thr-Sar-MeLeu-Leu-MeLeu-Ala-D-Hiv-MeLeu-Leu-MeVal]] (cyclo([Hiv][dNMeL][dL][dNMeV][X5][d(aThr)][Sar][NMeL][dL][dNMeL][dA])) | 0.001 to 0.025 µM | 75 to 100 µM (≈ 102 to 135 µg/mL) | 0.001 to 0.025 µM | > 10 µM |  |  |  |
